These results are taken from patent publication US20240368168A1, “SARM1 ENZYME ACTIVITY INHIBITOR AND APPLICATION THEREOF” (ARTIVILA BIOPHARMA, priority 2021, published 2024).

Assay [1] deals with T1, dN-SARM1 protein (Homo sapiens, UniProt Q6SZW1).
T1 construct: the N-terminal mitochondrial localization signal peptide of SARM1 was removed
T1 sequence (Q6SZW1 28-724): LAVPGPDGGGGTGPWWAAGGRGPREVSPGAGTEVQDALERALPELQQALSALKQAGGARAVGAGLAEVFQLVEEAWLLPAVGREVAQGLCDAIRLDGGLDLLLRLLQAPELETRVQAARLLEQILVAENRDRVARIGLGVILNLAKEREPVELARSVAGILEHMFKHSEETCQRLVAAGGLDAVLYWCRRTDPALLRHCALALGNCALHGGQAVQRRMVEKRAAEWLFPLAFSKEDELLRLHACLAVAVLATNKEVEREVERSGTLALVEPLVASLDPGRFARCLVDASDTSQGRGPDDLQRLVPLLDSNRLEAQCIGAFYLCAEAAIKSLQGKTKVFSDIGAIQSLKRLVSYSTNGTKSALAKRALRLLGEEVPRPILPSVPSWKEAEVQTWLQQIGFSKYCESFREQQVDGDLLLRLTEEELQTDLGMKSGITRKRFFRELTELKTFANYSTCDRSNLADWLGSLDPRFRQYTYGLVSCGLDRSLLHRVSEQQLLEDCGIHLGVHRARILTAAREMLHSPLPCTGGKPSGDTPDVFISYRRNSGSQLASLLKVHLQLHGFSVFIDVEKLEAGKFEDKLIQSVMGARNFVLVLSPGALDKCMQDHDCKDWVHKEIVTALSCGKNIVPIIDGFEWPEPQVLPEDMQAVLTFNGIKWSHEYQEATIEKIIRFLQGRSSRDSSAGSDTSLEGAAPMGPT
Kind of assay: In vitro biochemical assay for inhibiting SARM1 enzymatic activity (IC50), PC6 fluorescence method. As to conditions: 50 μM NAD, 50 μM PC6, 50 μM NMN activator. Summed up:
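Activity read as the rate of PC6 fluorescence change (390 nm excitation, 520 nm emission) over a 30 min room-temperature reaction containing final 50 μM each of NAD, PC6 and NMN activator. Enzyme, 0.05 μg/ml dN-SARM1 in 50 mM Tris-HCl pH 7.5, first incubated 10 min with compound diluted serially from 200 μM; IC50 calculated.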

The target of assay [2] is T2, SARM1 protein in iSARM1 (HEK293) cells (Homo sapiens, UniProt Q6SZW1).
T2 construct: The full-length SARM1 was synthesized into the pUC57 plasmid by WZ Biosciences Inc., and PCR was performed using pUC57-SARM1 as a DNA template
T2 sequence (Q6SZW1 28-724): T1 sequence (Q6SZW1 28-724)
The assay can be described thus: Inhibitory activity in inducible SARM1 overexpressing cell line, intracellular cADPR level. The class given is cell-based. As to conditions: activator CZ-48 100 μM, cADPR content. The protocol:
In this example, the gene sequence of SARM1 was amplified using PCR, and constructed into pInducer20-neo plasmid. pInducer20-SARM1 virus was packaged in a liposome and infected HEK293 to obtain an inducible SARM1-overexpressing cell line, which was labeled as iSARM1 (HEK293). The specific preparation was as follows:
First, a 96-well culture plate was treated with 0.05 mg/ml polylysine for 5 minutes and washed once with PBS. 3×10^4 iSARM1 (HEK293) cells were plated into the 96-well plate and cultured overnight in a 37° C. and 5% incubator. The next day, the cells were added with an inhibitor with a final concentration of 50 μM, incubated in the incubator for 1.5 hours, added with activator CZ-48 with a final concentration of 100 μM, and incubated for 16 hours. Meanwhile, the cells without adding CZ-48 or without adding drug were set as control group. Finally, the intracellular cADPR level was detected to represent the activity of SARM1, and the inhibition rate of SARM1 in cells by 50 μM inhibitor was calculated.
The cADPR measurement was performed as follows. First, the cells were washed once with PBS, and added with 150 μl of pre-cooled 0.6M perchloric acid (PCA) to quickly lyse the cells and precipitate the protein. The PCA supernatant was transferred to a 1.5 ml centrifuge tube. The protein in the culture medium was dissolved again with 100 μl of 1M NaOH. The supernatant was added with 0.5 ml of organic reagent mixture (trioctylamine:chloroform=1:3) to extract PCA from water. After sufficient shaking, the mixture was centrifuged at 12,000 rpm for 10 minutes. The solution was divided into 3 layers: the upper aqueous phase, containing the small molecules of interest; the lower organic phase, in which PCA was dissolved; and a thin protein layer between the upper and lower layers. The upper layer was transferred to a new centrifuge tube, added with 1M Tris-Mg at a ratio of 1:100 (1M Tris (pH 8.0): 1M MgCl2=9:1), added with NADase at a ratio of 1:250, and treated at 37° C. overnight to remove NAD^+ from the mixed solution. After the treatment was completed, the mixed solution was filtered using Millipore's 10 K 96-well filter plate to remove NADase.
The cADPR content in the solution was determined through Cycling analysis method. The specific steps were as follows: 20 μl of the sample to be tested or the cADPR standard was taken and added to a 96-well opaque white plate. Preparation of reaction solution: 9.6 ml of PBS (pH 7.4), 200 μl of ethanol, 150 μl of 1 mg/ml AD, 10 μl of 10 mM FMN, 5 μl of 18 mg/ml Diaphorase, 10 μl of 10 mM Resazurin, and 100 μl of 1M Nam. Half of the reaction solution was divided and added with 0.2 μg/ml cyclase. The reaction solution without adding cyclase was used as control experiment. Each sample was divided into two groups, 3 replicates in each group. The reaction solutions containing or not containing cyclase were added to each group to perform the reaction. The reaction kinetic curve within 30 minutes was recorded (Ex:Em=544/599). The average slope of the reaction was calculated. Conversion was performed according to cADPR standard to obtain the accurate cADPR content. A curve of intracellular cADPR content vs corresponding inhibitor concentration was plotted. The half inhibitory concentration of the inhibitor was calculated.

`C=CCN(C(=O)OC(C)(C)C)c1ccc2ncc(-c3cccc(NC(=O)C4CCOCC4)c3)n2c1` [Compound 213, tert-butyl allyl(3-(3-(tetrahydro-2H-pyran-4-carboxamido)phenyl)imidazo[1,2-a]pyridin-6-yl)carbamate] yielded an IC50 in assay [1] of 1 to 10 µM. Further, in assay [2], the EC50 is less than 1 µM.
Molecule `CC(C)(C)OC(=O)N(C/C=C/c1cccc(N)c1)c1ccc2ncc(-c3cccc(NC(=O)C4CCOCC4)c3)n2c1` [Compound 219] displayed an IC50 in assay [1] of 1 to 10 µM. The EC50 in assay [2] is 1 to 10 µM.
For `Nc1cccc(/C=C/CNc2ccc3ncc(-c4ccccc4)n3c2)c1` [Compound 220], in assay [1], the IC50 lay in the range of 1 to 10 µM. This molecule also came in with a 50% effective concentration (EC50) in assay [2] of 1 to 10 µM.
With `CC(C)(C)OC(=O)N(C/C=C/c1cccc(NC(=O)C2CCOCC2)c1)c1ccc2ncc(-c3ccccc3)n2c1` [Compound 221], the IC50 in assay [1] fell in the range of 1 to 10 µM. The molecule further showed an EC50 in assay [2] of less than 1 µM.
As for `O=C(Nc1cccc(-c2cnc3ccc(N4CCOCC4)cn23)c1)[C@H]1C[C@H](N2CCCCC2)C1` [Compound 227], the IC50 in assay [1] was in the range of 1 to 10 µM. The same molecule showed an EC50 in assay [2] of less than 1 µM.
Turning to `O=C(Nc1cccc(-c2cnc3ccc(N4CCOCC4)cn23)c1)[C@H]1C[C@@H](N2CCOCC2)C1` [Compound 230], the IC50 in assay [1] was in the range of 1 to 10 µM. For the same molecule, the EC50 in assay [2] was 1 to 10 µM.
`O=C(Nc1cccc(-c2cnc3ccc(N4CCOCC4)cn23)c1)[C@H]1C[C@H](N2CCOCC2)C1` [Compound 231] had an IC50 in assay [1] of 1 to 10 µM. For the same molecule, the EC50 in assay [2] was 1 to 10 µM.
`O=C(Cc1ccc(Cl)cc1)Nc1cccn2c(-c3ccncc3)cnc12` [Compound 234] showed an IC50 in assay [1] of 1 to 10 µM. The EC50 in assay [2] was 1 to 10 µM.
For `CNc1ccc2ncc(-c3cccc(NC(=O)C4CCCO4)c3)n2c1` (stereo not shown) [Compound 236], the IC50 in assay [1] is less than 1 µM. This molecule also displayed an EC50 in assay [2] of 1 to 10 µM.
The like results for `CN(C(=O)OC(C)(C)C)c1ccc2ncc(-c3cccc(NC(=O)COC4CCOC4)c3)n2c1` (stereo not shown) [Compound 237] were, in that order, less than 1 µM and less than 1 µM.
The like results for `CN(C(=O)OC(C)(C)C)c1ccc2ncc(-c3cccc(NC(=O)[C@@H]4CCOC4)c3)n2c1` [Compound 238] were, in that order, less than 1 µM and less than 1 µM.
For `CN(C(=O)OC(C)(C)C)c1ccc2ncc(-c3cccc(NC(=O)[C@H]4CCOC4)c3)n2c1` [Compound 239] the same measures were less than 1 µM and less than 1 µM.
Molecule `CC(C)(C)OC(=O)Nc1ccc2ncc(-c3cccc(NC(=O)COCCOCc4ccccc4)c3)n2c1` [Compound 240] displayed a half-inhibitory concentration (IC50) in assay [1] of less than 1 µM. In assay [2], this molecule displayed an EC50 of less than 1 µM.
`CNc1ccc2ncc(-c3cccc(NC(=O)COCCOCc4ccccc4)c3)n2c1` [Compound 241]: the IC50 in assay [1] was less than 1 µM. Also, the EC50 in assay [2] was less than 1 µM.
Consider `CN(C(=O)OC(C)(C)C)c1ccc2ncc(-c3cccc(NC(=O)COCCOCc4ccccc4)c3)n2c1` [Compound 244], for which the IC50 in assay [1] was 1 to 10 µM. This molecule also came in with an EC50 in assay [2] of less than 1 µM.
In assay [1], `CN(C(=O)OC(C)(C)C)c1ccc2ncc(-c3cccc(NC(=O)C4CCCO4)c3)n2c1` (stereo not shown) [Compound 245] had an IC50 of 1 to 10 µM. In assay [2], this molecule had an EC50 of less than 1 µM.
Consider `CN(C(=O)OC(C)(C)C)c1ccc2ncc(-c3cccc(C(=O)NC[C@@H]4CCO4)c3)n2c1` [Compound 246], for which, in assay [1], the IC50 was in the range of 1 to 10 µM. The same molecule returned an EC50 in assay [2] of 1 to 10 µM.
In turn, `CC(C)OCCOCC(=O)Nc1cccc(-c2cnc3ccc(N(C)C(=O)OC(C)(C)C)cn23)c1` [Compound 247] registered an IC50 in assay [1] of 1 to 10 µM. The molecule further showed an EC50 in assay [2] of less than 1 µM.
The like results for `CN(C(=O)OC(C)(C)C)c1ccc2ncc(-c3cccc(NC(=O)COCc4ccccc4)c3)n2c1` [Compound 248] were, in that order, 1 to 10 µM and less than 1 µM.
The like results for `CN(C(=O)OC(C)(C)C)c1ccc2ncc(-c3cccc(NC(=O)c4ccccc4)c3)n2c1` [Compound 249] were, in that order, 1 to 10 µM and less than 1 µM.
For `CNc1ccc2ncc(-c3cccc(NC(=O)c4ccccc4)c3)n2c1` [Compound 251] the same measures were 1 to 10 µM and 1 to 10 µM.
Regarding `CNc1ccc2ncc(-c3cccc(CNC(=O)c4ccccc4)c3)n2c1` [Compound 253], the IC50 in assay [1] is 1 to 10 µM. The same molecule returned an EC50 in assay [2] of 1 to 10 µM.
In assay [1], `CN(C(=O)OC(C)(C)C)c1ccc2ncc(-c3cccc(CNC(=O)OC(C)(C)C)c3)n2c1` [Compound 254] displayed an IC50 of less than 1 µM. For the same molecule, in assay [2], the EC50 was 1 to 10 µM.
The like results for `CNc1ccc2ncc(-c3cccc4[nH]ccc34)n2c1` [Compound 255] were, in that order, less than 1 µM and 1 to 10 µM.
For `CN(C(=O)OC(C)(C)C)c1ccc2ncc(-c3cccc4c3CNC4=O)n2c1` [Compound 256] the same measures were less than 1 µM and 1 to 10 µM.
The like results for `CN(C(=O)OC(C)(C)C)c1ccc2ncc(-c3cccc4cn[nH]c34)n2c1` [Compound 259] were, in that order, less than 1 µM and 1 to 10 µM.
For the molecule `CN(C(=O)OC(C)(C)C)c1ccc2ncc(-c3cccc4c3CC(=O)N4)n2c1` [Compound 260], the concentration for half-maximal inhibition (IC50) in assay [1] is less than 1 µM. In assay [2], this molecule registered an EC50 of 1 to 10 µM.
For `CN(C(=O)OC(C)(C)C)c1ccc2ncc(-c3cccc4ncccc34)n2c1` [Compound 262], the IC50 in assay [1] was less than 1 µM. Besides, in assay [2], the EC50 is less than 1 µM.
For `CN(C(=O)OC(C)(C)C)c1ccc2ncc(-c3cccc(O)c3)n2c1` [Compound 272], the IC50 in assay [1] was 1 to 10 µM. The molecule further had an EC50 in assay [2] of 1 to 10 µM.
The molecule `CNc1ccc2ncc(-c3cccc(C(=O)OC)c3)n2c1` [Compound 273] returned an IC50 in assay [1] of 1 to 10 µM. Moreover, in assay [2], the EC50 lay in the range of 1 to 10 µM.
`CNc1ccc2ncc(-c3cccc(CN)c3)n2c1` [Compound 274]: the IC50 in assay [1] lay in the range of 1 to 10 µM. In assay [2], this molecule displayed an EC50 of 1 to 10 µM.
Regarding `CN(C(=O)OC(C)(C)C)c1ccc2ncc(-c3cccc4[nH]ccc34)n2c1` [Compound 275], in assay [1], the IC50 lay in the range of 1 to 10 µM. This molecule returned an EC50 in assay [2] of 1 to 10 µM.
For the molecule `CNC(=O)c1cccc(-c2cnc3ccc(N(C)C(=O)OC(C)(C)C)cn23)c1` [Compound 276], the IC50 in assay [1] fell in the range of 1 to 10 µM. The EC50 in assay [2] lay in the range of 1 to 10 µM.
`CN(C(=O)OC(C)(C)C)c1ccc2ncc(-c3ccncc3F)n2c1` [Compound 278] showed an IC50 in assay [1] of 1 to 10 µM. The same molecule registered an EC50 in assay [2] of 1 to 10 µM.
Regarding `COC(=O)c1cccc(-c2cnc3ccc(N(C)C(=O)C(C)(C)C)cn23)c1` [Compound 301], in assay [1], the IC50 was less than 1 µM. The same molecule displayed an EC50 in assay [2] of 1 to 10 µM.
